Results from patent US20160375006A1, “USES OF PARALOG-SELECTIVE INHIBITORS OF GSK3 KINASES” (priority 2012, published 2016).

What was measured:
AKT1 = AKT1 (Homo sapiens, UniProt P31749)
Protocol: (§1) This was completed utilizing one of two assays depending on the kinase being examined.
(§2) A solution of IMAP binding reagent (IMAP Screening Express kit; Molecular Devices) (60 μL) was added to each well and incubated for 30 minutes.
(§3) A solution of termination buffer (QuickScout Screening assist MSA; Carna Biosciences) (60 μL) was added to each well. The entire reaction mixture was then applied to a LabChip3000 system (Caliper Life Science) and the product and substrate peptide peaks were separated and quantified.
(§4) The assay utilized was identical to that of the single point inhibitory activity determination (MSA) but run in dose response. […] A solution of termination buffer (QuickScout Screening assist MSA; Carna Biosciences) (60 μL) was added to each well. The entire reaction mixture was then applied to a LabChip3000 system (Caliper Life Science) and the product and substrate peptide peaks were separated and quantified.

EGFR(L861Q) = EGFR(L861Q) (Homo sapiens, UniProt P00533, L861Q)
Protocol: as §1, §2, §3, §4

AKT3 = AKT3 (Homo sapiens, UniProt Q9Y243)
Protocol: as §1, §2, §3, §4

FYN = FYN (Homo sapiens, UniProt P06241)
Protocol: as §1, §2, §3, §4

FGFR2 = FGFR2 (Homo sapiens, UniProt P21802)
Protocol: as §1, §2, §3

MLK1_Cascade = MLK1_Cascade (Homo sapiens, UniProt P80192)
Protocol: as §1, §3
(§5) The assay utilized was identical to that of the single point inhibitory activity determination (MSA) but run in dose response.

JAK1 = JAK1 (Homo sapiens, UniProt P23458)
Protocol: as §1, §2, §3, §4

MRCKα = MRCKα (Homo sapiens, UniProt Q5VT25)
Protocol: as §1, §2, §3, §4

DDR1 = DDR1 (Homo sapiens, UniProt Q08345)
Protocol: as §1, §2, §3, §4

FAK = FAK (Homo sapiens, UniProt Q05397)
Protocol: as §1, §2, §3, §4

PIM1 = PIM1 (Homo sapiens, UniProt P11309)
Protocol: as §1, §2, §3

MSK1 = MSK1 (Homo sapiens, UniProt O75582)
Protocol: as §1, §2, §3

AXL = AXL (Homo sapiens, UniProt P30530)
Protocol: as §1, §2, §3

KIT(T670I) = KIT(T670I) (Homo sapiens, UniProt P10721, T670I)
Protocol: as §1, §2, §3, §4

ABL = ABL (Homo sapiens, UniProt P00519)
Protocol: as §1, §2, §3, §4

MST2 = MST2 (Homo sapiens, UniProt Q13188)
Protocol: as §1, §2, §3

MST3 = MST3 (Homo sapiens, UniProt Q9Y6E0)
Protocol: as §1, §2, §3, §4

WNK1 = WNK1 (Homo sapiens, UniProt Q9H4A3)
Description: as §1, §5

FGFR3(K650E) = FGFR3(K650E) (Homo sapiens, UniProt P22607, K650E)
Protocol: as §1, §2, §3, §4

LOK = LOK (Homo sapiens, UniProt O94804)
Protocol: as §1, §2, §3

PKR = target: T1, PKR (Homo sapiens, UniProt P19525); assay: Carna kinase panel; type: biochemical
T1 construct: purchased Carna Biosciences
Protocol: as §1, §2, §3

PBK = PBK (Homo sapiens, UniProt Q96KB5)
Protocol: as §1, §2, §3, §4

PLK1 = target: T2, PLK1 (Homo sapiens, UniProt P53350); assay: Carna kinase panel; type: biochemical
T2 construct: purchased Carna Biosciences
Protocol: as §1, §2, §3

MARK4 = MARK4 (Homo sapiens, UniProt Q96L34)
Protocol: as §1, §2, §3, §4

AurA = AurA (Homo sapiens, UniProt O14965)
Protocol: as §1, §3, §5

IRR = IRR (Homo sapiens, UniProt P14616)
Protocol: as §1, §2, §3, §4

WNK2 = WNK2 (Homo sapiens, UniProt Q9Y3S1)
Protocol: as §1, §2, §3, §4

KIT(D816V) = KIT(D816V) (Homo sapiens, UniProt P10721, D816V)
Protocol: as §1, §2, §3, §4

DDR2 = DDR2 (Homo sapiens, UniProt Q16832)
PDGFRα = PDGFRα (Homo sapiens, UniProt P16234)
Protocol: as §1, §2, §3, §4

DYRK3 = DYRK3 (Homo sapiens, UniProt O43781)
Protocol: as §1, §2, §3, §4

IRAK4 = IRAK4 (Homo sapiens, UniProt Q9NWZ3)
Protocol: as §1, §2, §3, §4

TSSK1 = TSSK1 (Homo sapiens, UniProt Q9BXA7)
Protocol: as §1, §2, §3, §4

SGK = SGK (Homo sapiens, UniProt O00141)
Protocol: as §1, §2, §3, §4

RSK3 = target: T3, RSK3 (Homo sapiens, UniProt Q15349); assay: Carna kinase panel; type: biochemical
T3 construct: purchased Carna Biosciences
Protocol: as §1, §2, §3

TNK1 = TNK1 (Homo sapiens, UniProt Q13470)
Description: as §1, §5

PDGFRα(T674I) = PDGFRα(T674I) (Homo sapiens, UniProt P16234, T674I)
Protocol: as §1, §2, §3, §4

MET(Y1235D) = MET(Y1235D) (Homo sapiens, UniProt P08581, Y1235D)
Protocol: as §1, §2, §3, §4

PIK3CA/PIK3R1 = PIK3CA/PIK3R1 (Homo sapiens, UniProt P42336)
Protocol: as §1, §2, §3, §4

MST4 = MST4 (Homo sapiens, UniProt Q9P289)
Protocol: as §1, §2, §3, §4

FGFR2, sequence (P21802 22-821): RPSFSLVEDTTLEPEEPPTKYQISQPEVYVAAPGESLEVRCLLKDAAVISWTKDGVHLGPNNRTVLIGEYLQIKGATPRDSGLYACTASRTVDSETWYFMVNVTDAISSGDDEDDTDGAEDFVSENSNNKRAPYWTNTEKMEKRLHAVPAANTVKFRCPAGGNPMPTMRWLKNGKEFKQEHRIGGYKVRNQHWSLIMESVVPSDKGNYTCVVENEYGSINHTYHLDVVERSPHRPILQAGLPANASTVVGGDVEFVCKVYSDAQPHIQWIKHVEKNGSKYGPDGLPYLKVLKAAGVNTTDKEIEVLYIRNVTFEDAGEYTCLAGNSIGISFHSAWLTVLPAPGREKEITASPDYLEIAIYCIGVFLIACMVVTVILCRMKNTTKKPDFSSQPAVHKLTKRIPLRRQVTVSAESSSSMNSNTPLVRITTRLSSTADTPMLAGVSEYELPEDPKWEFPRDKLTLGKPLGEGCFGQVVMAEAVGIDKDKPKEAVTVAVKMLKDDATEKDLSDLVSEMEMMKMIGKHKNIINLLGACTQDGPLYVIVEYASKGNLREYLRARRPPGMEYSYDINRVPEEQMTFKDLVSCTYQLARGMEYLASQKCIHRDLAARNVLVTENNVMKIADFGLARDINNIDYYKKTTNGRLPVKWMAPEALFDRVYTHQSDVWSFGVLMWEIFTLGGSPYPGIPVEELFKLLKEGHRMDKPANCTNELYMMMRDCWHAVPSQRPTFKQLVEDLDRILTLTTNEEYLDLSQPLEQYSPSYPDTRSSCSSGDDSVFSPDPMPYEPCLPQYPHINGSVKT
MARK4, sequence (Q96L34 whole entry): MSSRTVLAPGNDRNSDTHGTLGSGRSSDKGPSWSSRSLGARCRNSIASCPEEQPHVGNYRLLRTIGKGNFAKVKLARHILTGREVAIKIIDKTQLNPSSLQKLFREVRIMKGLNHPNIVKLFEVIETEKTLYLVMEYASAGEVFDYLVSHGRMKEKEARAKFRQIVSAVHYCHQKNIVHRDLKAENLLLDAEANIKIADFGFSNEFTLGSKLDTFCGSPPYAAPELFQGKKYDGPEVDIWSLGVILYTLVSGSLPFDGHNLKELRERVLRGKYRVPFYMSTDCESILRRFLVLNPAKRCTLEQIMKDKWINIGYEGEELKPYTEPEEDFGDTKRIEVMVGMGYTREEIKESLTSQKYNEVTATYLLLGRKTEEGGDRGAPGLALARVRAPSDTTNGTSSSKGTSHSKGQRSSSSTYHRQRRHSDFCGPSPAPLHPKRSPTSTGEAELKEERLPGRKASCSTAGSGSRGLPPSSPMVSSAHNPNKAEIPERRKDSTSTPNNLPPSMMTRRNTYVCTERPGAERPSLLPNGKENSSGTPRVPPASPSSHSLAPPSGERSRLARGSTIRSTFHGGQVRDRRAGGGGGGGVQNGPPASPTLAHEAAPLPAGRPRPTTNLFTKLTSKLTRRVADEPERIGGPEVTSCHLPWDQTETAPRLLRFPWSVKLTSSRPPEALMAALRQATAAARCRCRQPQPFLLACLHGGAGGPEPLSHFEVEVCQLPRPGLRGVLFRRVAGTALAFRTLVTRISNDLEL
MLK1_Cascade, sequence (P80192 whole entry): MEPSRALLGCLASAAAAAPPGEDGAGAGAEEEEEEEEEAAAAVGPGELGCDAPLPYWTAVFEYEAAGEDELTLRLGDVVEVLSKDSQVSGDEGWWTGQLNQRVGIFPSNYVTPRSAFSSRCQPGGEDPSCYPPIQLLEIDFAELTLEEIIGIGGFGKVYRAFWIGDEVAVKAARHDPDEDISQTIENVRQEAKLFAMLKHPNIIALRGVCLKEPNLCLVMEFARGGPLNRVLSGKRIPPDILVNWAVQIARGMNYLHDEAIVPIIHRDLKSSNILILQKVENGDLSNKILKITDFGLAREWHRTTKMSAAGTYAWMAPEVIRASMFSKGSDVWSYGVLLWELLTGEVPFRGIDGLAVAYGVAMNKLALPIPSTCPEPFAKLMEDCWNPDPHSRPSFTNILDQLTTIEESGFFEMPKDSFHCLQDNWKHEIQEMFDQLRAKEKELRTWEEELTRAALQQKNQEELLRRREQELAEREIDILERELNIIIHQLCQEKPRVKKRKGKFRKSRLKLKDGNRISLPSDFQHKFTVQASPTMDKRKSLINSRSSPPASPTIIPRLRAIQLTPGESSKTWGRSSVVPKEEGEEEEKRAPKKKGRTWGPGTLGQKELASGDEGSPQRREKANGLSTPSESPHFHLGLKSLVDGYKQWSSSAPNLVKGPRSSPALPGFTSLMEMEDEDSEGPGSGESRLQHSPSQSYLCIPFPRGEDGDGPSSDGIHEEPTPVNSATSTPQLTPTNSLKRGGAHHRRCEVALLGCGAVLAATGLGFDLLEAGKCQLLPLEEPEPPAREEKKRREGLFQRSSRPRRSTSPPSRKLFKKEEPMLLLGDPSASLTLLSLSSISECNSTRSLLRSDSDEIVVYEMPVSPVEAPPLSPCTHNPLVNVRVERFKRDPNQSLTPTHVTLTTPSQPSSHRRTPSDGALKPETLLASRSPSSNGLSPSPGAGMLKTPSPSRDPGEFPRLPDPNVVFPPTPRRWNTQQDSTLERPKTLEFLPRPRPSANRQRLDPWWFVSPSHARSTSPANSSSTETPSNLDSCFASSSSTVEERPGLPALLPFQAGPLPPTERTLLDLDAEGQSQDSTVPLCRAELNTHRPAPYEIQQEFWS
FYN, sequence (P06241 whole entry): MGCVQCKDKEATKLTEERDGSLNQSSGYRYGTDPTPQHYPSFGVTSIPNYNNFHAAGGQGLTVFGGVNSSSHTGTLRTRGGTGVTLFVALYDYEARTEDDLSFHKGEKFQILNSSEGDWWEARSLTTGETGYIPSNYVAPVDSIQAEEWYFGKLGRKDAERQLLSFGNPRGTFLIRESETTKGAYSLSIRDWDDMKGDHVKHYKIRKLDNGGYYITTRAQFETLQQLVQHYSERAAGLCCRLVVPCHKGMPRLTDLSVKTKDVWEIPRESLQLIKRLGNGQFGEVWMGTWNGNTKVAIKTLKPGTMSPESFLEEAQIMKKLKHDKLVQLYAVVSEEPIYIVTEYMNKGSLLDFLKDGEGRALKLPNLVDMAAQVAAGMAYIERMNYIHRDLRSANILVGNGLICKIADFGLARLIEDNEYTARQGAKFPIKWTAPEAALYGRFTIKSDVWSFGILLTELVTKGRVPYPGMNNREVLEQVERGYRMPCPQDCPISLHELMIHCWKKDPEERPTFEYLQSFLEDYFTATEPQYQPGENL
PDGFRα, sequence (P16234 24-1089): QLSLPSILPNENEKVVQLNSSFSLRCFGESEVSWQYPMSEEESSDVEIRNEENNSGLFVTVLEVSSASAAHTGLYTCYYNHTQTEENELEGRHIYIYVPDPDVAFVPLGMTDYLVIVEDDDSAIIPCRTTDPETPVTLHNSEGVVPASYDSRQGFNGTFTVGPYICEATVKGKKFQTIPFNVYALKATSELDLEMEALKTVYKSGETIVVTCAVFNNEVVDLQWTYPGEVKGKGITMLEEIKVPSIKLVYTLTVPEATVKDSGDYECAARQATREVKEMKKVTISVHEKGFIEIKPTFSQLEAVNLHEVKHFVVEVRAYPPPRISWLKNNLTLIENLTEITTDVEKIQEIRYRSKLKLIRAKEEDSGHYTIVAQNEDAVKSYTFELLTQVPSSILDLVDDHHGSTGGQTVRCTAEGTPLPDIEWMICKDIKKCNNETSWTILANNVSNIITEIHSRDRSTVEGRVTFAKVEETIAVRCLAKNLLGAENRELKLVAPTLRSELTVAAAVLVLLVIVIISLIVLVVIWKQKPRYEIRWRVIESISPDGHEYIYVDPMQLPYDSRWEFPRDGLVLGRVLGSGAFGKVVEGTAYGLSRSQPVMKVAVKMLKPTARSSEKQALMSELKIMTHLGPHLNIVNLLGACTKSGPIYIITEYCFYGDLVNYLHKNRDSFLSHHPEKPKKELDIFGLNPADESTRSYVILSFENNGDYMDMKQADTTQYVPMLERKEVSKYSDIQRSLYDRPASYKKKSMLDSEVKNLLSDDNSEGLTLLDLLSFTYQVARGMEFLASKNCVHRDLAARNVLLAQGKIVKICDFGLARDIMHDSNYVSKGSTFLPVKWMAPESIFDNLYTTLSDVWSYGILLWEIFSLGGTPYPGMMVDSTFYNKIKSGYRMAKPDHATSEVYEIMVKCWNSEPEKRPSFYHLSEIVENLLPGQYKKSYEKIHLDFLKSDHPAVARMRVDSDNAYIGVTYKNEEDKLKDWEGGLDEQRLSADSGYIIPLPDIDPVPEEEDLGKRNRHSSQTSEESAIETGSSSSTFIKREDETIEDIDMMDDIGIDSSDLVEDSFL
MST2, sequence (Q13188 whole entry): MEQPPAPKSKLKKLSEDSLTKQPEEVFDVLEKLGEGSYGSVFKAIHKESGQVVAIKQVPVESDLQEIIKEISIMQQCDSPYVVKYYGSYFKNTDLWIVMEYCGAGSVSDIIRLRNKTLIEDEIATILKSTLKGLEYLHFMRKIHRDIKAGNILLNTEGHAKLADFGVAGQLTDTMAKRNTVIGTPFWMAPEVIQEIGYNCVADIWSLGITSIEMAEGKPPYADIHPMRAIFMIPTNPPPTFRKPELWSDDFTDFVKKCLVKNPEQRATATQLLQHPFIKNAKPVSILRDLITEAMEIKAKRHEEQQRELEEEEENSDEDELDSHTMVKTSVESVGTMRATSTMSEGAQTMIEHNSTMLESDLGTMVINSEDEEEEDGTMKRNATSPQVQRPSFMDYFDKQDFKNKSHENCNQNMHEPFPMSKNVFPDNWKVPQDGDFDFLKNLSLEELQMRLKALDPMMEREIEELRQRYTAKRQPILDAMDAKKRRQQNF
PBK, sequence (Q96KB5 whole entry): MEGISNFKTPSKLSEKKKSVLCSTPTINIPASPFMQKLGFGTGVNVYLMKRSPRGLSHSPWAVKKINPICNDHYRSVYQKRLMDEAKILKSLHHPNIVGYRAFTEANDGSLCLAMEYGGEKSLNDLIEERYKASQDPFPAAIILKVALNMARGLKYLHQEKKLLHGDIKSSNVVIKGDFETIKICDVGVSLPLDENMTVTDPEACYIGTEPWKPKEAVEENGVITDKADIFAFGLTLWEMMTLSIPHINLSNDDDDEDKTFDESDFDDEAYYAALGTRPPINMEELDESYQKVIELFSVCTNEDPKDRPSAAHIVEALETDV

CC[C@@]1(c2ccccc2)C2=C(CC(C)(C)CC2=O)Nc2n[nH]cc21 [BRD0705]
% Inhibition at 10 μM (AKT1): −8.3% | % Inhibition at 10 μM (EGFR(L861Q)): −1.8% | % Inhibition at 10 μM (AKT3): −8.3% | % Inhibition at 10 μM (FYN): 3.1% | % Inhibition at 10 μM (FGFR2): −9.2% | % Inhibition at 10 μM (MLK1_Cascade): 6.3% | % Inhibition at 10 μM (JAK1): −1.3% | % Inhibition at 10 μM (MRCKα): −3.8% | % Inhibition at 10 μM (DDR1): −2.0% | % Inhibition at 10 μM (FAK): −3.9% | % Inhibition at 10 μM (PIM1): −3.4% | % Inhibition at 10 μM (MSK1): −27.1% | % Inhibition at 10 μM (AXL): 3.7% | % Inhibition at 10 μM (KIT(T670I)): −0.8% | % Inhibition at 10 μM (ABL): 4.2% | % Inhibition at 10 μM (MST2): −3.4% | % Inhibition at 10 μM (MST3): 11.7% | % Inhibition at 10 μM (WNK1): −4.2% | % Inhibition at 10 μM (FGFR3(K650E)): −15.5% | % Inhibition at 10 μM (LOK): 9.6% | % Inhibition at 10 μM (PKR): 2.0% | % Inhibition at 10 μM (PBK): −8.0% | % Inhibition at 10 μM (PLK1): −12.3% | % Inhibition at 10 μM (MARK4): 2.0% | % Inhibition at 10 μM (AurA): 6.1% | % Inhibition at 10 μM (IRR): 4.0% | % Inhibition at 10 μM (WNK2): −5.0% | % Inhibition at 10 μM (KIT(D816V)): 3.5% | % Inhibition at 10 μM (DDR2): −1.4% | % Inhibition at 10 μM (PDGFRα): −0.8% | % Inhibition at 10 μM (DYRK3): 7.7% | % Inhibition at 10 μM (IRAK4): −7.4% | % Inhibition at 10 μM (TSSK1): −8.5% | % Inhibition at 10 μM (SGK): −4.4% | % Inhibition at 10 μM (RSK3): −7.9% | % Inhibition at 10 μM (TNK1): −4.0% | % Inhibition at 10 μM (PDGFRα(T674I)): 0.5% | % Inhibition at 10 μM (MET(Y1235D)): −1.0% | % Inhibition at 10 μM (PIK3CA/PIK3R1): −10.7% | % Inhibition at 10 μM (MST4): −0.4%

CC(C)(C)Cc1[nH]nc2c1[C@](C)(c1ccccc1)C1=C(CC(C)(C)CC1=O)N2 [BRD3731]
% Inhibition 10 μM (AKT1; 10 μM): −1.1% | % Inhibition 10 μM (EGFR(L861Q); 10 μM): 2.7% | % Inhibition 10 μM (AKT3; 10 μM): −6.4% | % Inhibition 10 μM (FYN; 10 μM): −1.3% | % Inhibition 10 μM (FGFR2; 10 μM): 1.9% | % Inhibition 10 μM (MLK1_Cascade; 10 μM): −9.4% | % Inhibition 10 μM (JAK1; 10 μM): 3.7% | % Inhibition 10 μM (MRCKα; 10 μM): 4.3% | % Inhibition 10 μM (DDR1; 10 μM): 7.6% | % Inhibition 10 μM (FAK; 10 μM): 2.3% | % Inhibition 10 μM (PIM1; 10 μM): 11.0% | % Inhibition 10 μM (MSK1; 10 μM): 7.4% | % Inhibition 10 μM (AXL; 10 μM): 3.8% | % Inhibition 10 μM (KIT(T670I); 10 μM): −0.3% | % Inhibition 10 μM (ABL; 10 μM): 11.4% | % Inhibition 10 μM (MST2; 10 μM): 1.5% | % Inhibition 10 μM (MST3; 10 μM): 7.4% | % Inhibition 10 μM (WNK1; 10 μM): −1.0% | % Inhibition 10 μM (FGFR3(K650E); 10 μM): 0.7% | % Inhibition 10 μM (LOK; 10 μM): −1.0% | % Inhibition 10 μM (PKR; 10 μM): 3.1% | % Inhibition 10 μM (PBK; 10 μM): 0.6% | % Inhibition 10 μM (PLK1; 10 μM): −0.7% | % Inhibition 10 μM (MARK4; 10 μM): 22.7% | % Inhibition 10 μM (AurA; 10 μM): 15.4% | % Inhibition 10 μM (IRR; 10 μM): 6.2% | % Inhibition 10 μM (WNK2; 10 μM): 1.6% | % Inhibition 10 μM (KIT(D816V); 10 μM): −1.7% | % Inhibition 10 μM (DDR2; 10 μM): 7.9% | % Inhibition 10 μM (PDGFRα; 10 μM): 6.7% | % Inhibition 10 μM (DYRK3; 10 μM): 16.0% | % Inhibition 10 μM (IRAK4; 10 μM): 0.1% | % Inhibition 10 μM (TSSK1; 10 μM): −0.8% | % Inhibition 10 μM (SGK; 10 μM): −0.4% | % Inhibition 10 μM (RSK3; 10 μM): 35.5% | % Inhibition 10 μM (TNK1; 10 μM): −6.7% | % Inhibition 10 μM (PDGFRα(T674I); 10 μM): 3.1% | % Inhibition 10 μM (MET(Y1235D); 10 μM): 1.2% | % Inhibition 10 μM (PIK3CA/PIK3R1; 10 μM): 42.5% | % Inhibition 10 μM (MST4; 10 μM): 6.4%
